Patent US20260078135A1, “POLYCYCLIC QUINAZOLINES FOR INHIBITION OF ERBB2” (Enliven Inc., priority 2022, published 2026)

Experiments:
[1] = molecular target: T1, phosphorylated ERBB2 (pERBB2) (Homo sapiens, UniProt P04626); test: Detection of phosphorylated ERBB2 (pERBB2) by ELISA in BT-474 cells; format: cell-based; details: four hour incubation
T1 construct: endogenous in cells; host or cells: BT-474
Description: BT-474 cells were seeded into a 96-well at 2.0*10^4 cells/100 μl/well. Compounds were dissolved and serially diluted in DMSO. The compounds were then were added, mixed, and incubated for four hours at 37° C., 5% CO2. Compounds were added using four-fold dilutions at final concentrations ranging from 10 μM to 0.01 nM. Following the four hour incubation with compounds, cell lysates were prepared. Plates were centrifuged for 5 μmin at 3000 RPM, and supernatant was removed from each well. Cells were washed 3 times by resuspension in 150 μl PBS, followed by centrifugation and removal of the supernatant, as above. 100 μl of cell lysis buffer (Boston BioProducts, cat #BP-115D) supplied with 1× complete ULTRA cocktail inhibitor (Thermo ScientificTM, cat #78443) was then added to the washed cells. Cells were incubated with lysis buffer for 1 hour at 4° C., and then stored at -80° C. Enzyme-linked immunosorbent assays (ELISA) were performed to measure phosphorylated ERBB2 levels. […] The next day, plates were washed with PBS+0.05% Tween20 (PBST). 150 μl of 5% BSA blocking solution was added for 1 hour at room temperature, with shaking. Plates were washed with PBST. Cell lysates were thawed and 100 μl of lysate was added to the ELISA plate. The plates were incubated for 2 hours at room temperature, with shaking. ELISA plates were then washed with PBST and 100 μl of an HRP-labeled detection antibody that binds phosphorylated tyrosine (R&D Systems, cat #841913) was added to each well. Plates were incubated for 1 hour at room temperature, with shaking. Plates were then washed with PBST, and 100 μl TMB substrate solution (R&D Systems, cat #DY999) was added. Plate were incubated in the dark for 20 minutes at room temperature. 50 μl of Stop solution (R&D Systems, cat #DY994) (50 μl) was added to each well and mixed. Optical density at 450 nm was read on an EnSpire plate reader (Perkin Elmer). The remaining kinase activity by calculated using the following formula: % Relative activity=100×([…]). The low and high control values (“LC” and “HC”) were generated from lysate from wells without cells or with cells treated with 0.1% DMSO, respectively.

[2] = molecular target: T2, phosphorylated EGFR (pEGFR) (Homo sapiens, UniProt P00533); test: Detection of phosphorylated EGFR (pEGFR) by AlphaLISA in EGF-stimulated A431 cells; format: cell-based; details: A431 cells (10% FBS), 4 hours incubation, EGF 30 ng/mL for 10 minutes
T2 construct: performed to measure phosphorylated EGFR levels using A431 cells (10% FBS); endogenous in cells; host or cells: A431
T2 sequence (P00533 25-1210): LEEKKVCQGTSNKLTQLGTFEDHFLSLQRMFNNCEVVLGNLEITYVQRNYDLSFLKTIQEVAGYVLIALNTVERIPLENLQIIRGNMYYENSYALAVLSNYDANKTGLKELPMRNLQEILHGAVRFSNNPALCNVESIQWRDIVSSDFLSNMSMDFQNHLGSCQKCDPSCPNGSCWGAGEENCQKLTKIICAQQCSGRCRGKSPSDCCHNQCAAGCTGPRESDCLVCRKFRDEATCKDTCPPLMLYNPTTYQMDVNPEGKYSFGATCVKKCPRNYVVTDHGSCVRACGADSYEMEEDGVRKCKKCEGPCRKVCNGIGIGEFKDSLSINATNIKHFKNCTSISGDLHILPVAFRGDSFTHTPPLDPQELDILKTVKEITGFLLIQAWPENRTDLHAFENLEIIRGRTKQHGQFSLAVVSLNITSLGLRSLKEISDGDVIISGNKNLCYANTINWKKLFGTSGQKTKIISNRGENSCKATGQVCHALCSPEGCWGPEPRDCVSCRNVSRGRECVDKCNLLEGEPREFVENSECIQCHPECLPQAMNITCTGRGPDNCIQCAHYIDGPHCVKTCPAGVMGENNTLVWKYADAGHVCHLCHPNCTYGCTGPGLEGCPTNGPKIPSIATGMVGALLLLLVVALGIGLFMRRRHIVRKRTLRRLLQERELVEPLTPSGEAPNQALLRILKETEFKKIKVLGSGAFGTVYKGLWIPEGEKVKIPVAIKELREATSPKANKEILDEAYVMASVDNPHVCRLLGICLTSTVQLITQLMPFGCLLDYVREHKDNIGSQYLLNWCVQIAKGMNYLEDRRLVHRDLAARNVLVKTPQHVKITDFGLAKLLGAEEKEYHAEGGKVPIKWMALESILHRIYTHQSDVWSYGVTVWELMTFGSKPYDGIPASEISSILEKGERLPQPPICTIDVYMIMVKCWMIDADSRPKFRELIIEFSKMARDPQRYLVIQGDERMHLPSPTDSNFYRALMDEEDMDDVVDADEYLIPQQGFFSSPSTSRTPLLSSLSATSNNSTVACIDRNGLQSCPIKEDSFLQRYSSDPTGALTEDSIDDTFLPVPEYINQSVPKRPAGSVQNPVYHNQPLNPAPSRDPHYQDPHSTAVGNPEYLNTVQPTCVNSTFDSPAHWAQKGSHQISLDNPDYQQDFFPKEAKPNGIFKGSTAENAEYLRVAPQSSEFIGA
Description: Enzyme-linked immunosorbent assays (ELISA) were performed to measure phosphorylated EGFR levels using A431 cells (10% FBS). A431 (1.0*10^4 cells/40 μl/well) cells were seeded in 384 well. Compounds were dissolved in DMSO, serially diluted in DMSO and then were added, mixed, and incubated for 4 hours at 37° C., 5% C02. Following the 4-hours incubation, cells were stimulated for 10 minutes with EGF (Invitrogen, cat #PHG0311) at a final concentration of 30 ng/mL in the incubator. The media was aspirated and cells were lysed in 10 μL lysis buffer with protease and phosphatase inhibitors (PerkinElmer, cat #ALSU-PEGFR-A50K). The plates were placed on a shaker for 5 μminutes and then incubated for 30 min at 4° C. for complete lysis. The lysate was transferred to an Optiplate (Perkin Elmer, cat #6007290).
Acceptor mix (PerkinElmer, cat #ALSU-PEGFR-A50K) was prepared just before use and 5 μL was dispensed to all the wells, followed by a 1.5-2 h incubation at room temperature in dark. The donor mix (PerkinElmer, cat #ALSU-PEGFR-A50K) was prepared under low light conditions prior to use and 5 μl of donor mix was added to all the wells under subdued lighting or green filters. The plates were placed on a shaker for 5 μmin, sealed, and incubated overnight at room temperature in dark. Plates were read on the Envision (PerkinElmer) using standard AlphaLISA settings.
The percentage of inhibition on EGFR phosphorylation was calculated following equation: % Inhibition=100×(LumHC−LumSample)/(LumHC−LumLC). The low and high controls (LC/HC) are generated from lysate from wells with cells treated with DMSO or […] Staurosporine (BioAustralis, cat #BIA-S1086), […]. IC50 values were calculated by fitting the Curve using XLfit (v5.3.1.3), equation 201: Y=Bottom+(Top−Bottom)/(1+10^((Log IC50−X)*HillSlope)).

T1 sequence (P04626 23-1255): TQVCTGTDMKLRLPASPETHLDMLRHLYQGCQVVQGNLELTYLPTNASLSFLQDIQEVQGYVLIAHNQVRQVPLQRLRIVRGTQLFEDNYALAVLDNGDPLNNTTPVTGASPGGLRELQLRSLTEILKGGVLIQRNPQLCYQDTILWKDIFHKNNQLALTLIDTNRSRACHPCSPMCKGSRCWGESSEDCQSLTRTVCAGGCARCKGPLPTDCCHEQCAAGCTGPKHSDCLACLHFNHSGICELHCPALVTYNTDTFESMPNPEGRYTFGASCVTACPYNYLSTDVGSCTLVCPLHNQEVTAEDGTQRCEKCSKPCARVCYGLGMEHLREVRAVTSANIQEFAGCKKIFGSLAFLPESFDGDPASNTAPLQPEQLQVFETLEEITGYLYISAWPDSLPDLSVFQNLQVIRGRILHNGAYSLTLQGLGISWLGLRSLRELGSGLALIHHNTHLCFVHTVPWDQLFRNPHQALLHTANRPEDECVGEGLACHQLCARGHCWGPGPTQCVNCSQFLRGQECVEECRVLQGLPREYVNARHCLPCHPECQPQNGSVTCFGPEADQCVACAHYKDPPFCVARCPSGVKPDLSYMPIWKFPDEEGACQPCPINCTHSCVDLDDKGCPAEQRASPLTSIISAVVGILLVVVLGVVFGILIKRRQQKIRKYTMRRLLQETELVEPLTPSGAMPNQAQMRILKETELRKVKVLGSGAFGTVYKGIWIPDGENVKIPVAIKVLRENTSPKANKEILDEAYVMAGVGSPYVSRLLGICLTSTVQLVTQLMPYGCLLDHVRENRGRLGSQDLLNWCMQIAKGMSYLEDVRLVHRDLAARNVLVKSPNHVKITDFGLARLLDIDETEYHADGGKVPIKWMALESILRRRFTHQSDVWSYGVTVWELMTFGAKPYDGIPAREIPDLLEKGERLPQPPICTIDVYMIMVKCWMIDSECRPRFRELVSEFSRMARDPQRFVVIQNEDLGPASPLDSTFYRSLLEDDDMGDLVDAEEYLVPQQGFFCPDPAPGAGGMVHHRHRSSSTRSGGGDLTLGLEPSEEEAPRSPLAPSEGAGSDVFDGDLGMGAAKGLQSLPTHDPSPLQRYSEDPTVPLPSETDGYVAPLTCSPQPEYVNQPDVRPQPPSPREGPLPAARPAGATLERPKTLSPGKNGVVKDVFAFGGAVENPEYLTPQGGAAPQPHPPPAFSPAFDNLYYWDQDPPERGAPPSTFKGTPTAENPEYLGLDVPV

IC50 [1] | IC50 [2] | Structure (SMILES)
234 nM | > 10 µM | Cc1cc(Nc2ncnc3cc4c(nc23)N2CCN(C)C[C@@H]2CO4)ccc1Oc1ccn2ncnc2c1 [Compound 36, (R)—N-(4-([1,2,4]triazolo[1,5-a]pyridin-7-yloxy)-3-methylphenyl)-3-methyl-1,2,3,4,4a,5-hexahydropyrazino[1,2-d]pyrimido[4′,5′:5,6]pyrido[3,2-b][1,4]oxazin-11-amine]
77.6 nM | > 10 µM | Cc1cc(Nc2ncnc3cc4c(nc23)N2CCNC[C@H]2CO4)ccc1Oc1ccc2c(c1)ncn2C [Compound 37, (S)—N-(3-methyl-4-((1-methyl-1H-benzo[d]imidazol-5-yl)oxy)phenyl)-1,2,3,4,4a,5-hexahydropyrazino[1,2-d]pyrimido[4′,5′:5,6]pyrido[3,2-b][1,4]oxazin-11-amine]
60.6 nM | > 10 µM | Cc1cc(Nc2ncnc3cc4c(nc23)N2CCN(C)C[C@H]2CO4)ccc1Oc1ccc2c(c1)ncn2C [Compound 38, (S)-3-methyl-N-(3-methyl-4-((1-methyl-1H-benzo[d]imidazol-5-yl)oxy)phenyl)-1,2,3,4,4a,5-hexahydropyrazino[1,2-d]pyrimido[4′,5′:5,6]pyrido[3,2-b][1,4]oxazin-11-amine]
279 nM | > 10 µM | Cc1cc(Nc2ncnc3cc4c(nc23)N2CCNC[C@@H]2CO4)ccc1Oc1ccc2c(c1)ncn2C [Compound 39, (R)—N-(3-methyl-4-((1-methyl-1H-benzo[d]imidazol-5-yl)oxy)phenyl)-1,2,3,4,4a,5-hexahydropyrazino[1,2-d]pyrimido[4′,5′:5,6]pyrido[3,2-b][1,4]oxazin-11-amine]
153 nM | > 10 µM | Cc1cc(Nc2ncnc3cc4c(nc23)N2CCN(C)C[C@@H]2CO4)ccc1Oc1ccc2c(c1)ncn2C [Compound 40, (R)-3-methyl-N-(3-methyl-4-((1-methyl-1H-benzo[d]imidazol-5-yl)oxy)phenyl)-1,2,3,4,4a,5-hexahydropyrazino[1,2-d]pyrimido[4′,5′:5,6]pyrido[3,2-b][1,4]oxazin-11-amine]
57.7 nM | > 10 µM | Cc1cc(Nc2ncnc3ccc4c(c23)OC[C@H]2CNCCN42)ccc1Oc1ccn2ncnc2c1 [Compound 41, (R)—N-(4-([1,2,4]triazolo[1,5-a]pyridin-7-yloxy)-3-methylphenyl)-6,6a,7,8,9,10-hexahydropyrazino[1′,2′:4,5][1,4]oxazino[2,3-f]quinazolin-4-amine diformic acid]
31.5 nM | > 10 µM | Cc1cc(Nc2ncnc3ccc4c(c23)OC[C@H]2CN(C)CCN42)ccc1Oc1ccn2ncnc2c1 [Compound 42, (R)—N-(4-([1,2,4]triazolo[1,5-a]pyridin-7-yloxy)-3-methylphenyl)-8-methyl-6,6a,7,8,9,10-hexahydropyrazino[1′,2′:4,5][1,4]oxazino[2,3-f]quinazolin-4-amine]
76.5 nM | > 10 µM | Cc1cc(Nc2ncnc3ccc4c(c23)OC[C@@H]2CNCCN42)ccc1Oc1ccn2ncnc2c1 [Compound 43, (S)—N-(4-([1,2,4]triazolo[1,5-a]pyridin-7-yloxy)-3-methylphenyl)-6,6a,7,8,9,10-hexahydropyrazino[1′,2′:4,5][1,4]oxazino[2,3-f]quinazolin-4-amine]
218 nM | > 10 µM | Cc1cc(Nc2ncnc3ccc4c(c23)OC[C@@H]2CN(C)CCN42)ccc1Oc1ccn2ncnc2c1 [Compound 44, (S)—N-(4-([1,2,4]triazolo[1,5-a]pyridin-7-yloxy)-3-methylphenyl)-8-methyl-6,6a,7,8,9,10-hexahydropyrazino[1′,2′:4,5][1,4]oxazino[2,3-f]quinazolin-4-amine]
 | > 10 µM | CC(=O)N1CCN2c3ccc4ncnc(Nc5ccc(Oc6ccn7ncnc7c6)c(C)c5)c4c3OC[C@H]2C1 [Compound 109, (R)-1-(4-((4-([1,2,4]triazolo[1,5-a]pyridin-7-yloxy)-3-methylphenyl)amino)-6a,7,9,10-tetrahydropyrazino[1′,2′:4,5][1,4]oxazino[2,3-f]quinazolin-8(6H)-yl)ethan-1-one]
